Measured values: paper PMC4669722, “Antitumour potential of BPT: a dual inhibitor of cdk4 and tubulin polymerization” (Cell Death & Disease, 2015)
Starred links: 1 amine or outer side, 2 acyl side, 3 side chain; linkers in the order of their positions; H or OH if unused. Positions of bridges follow the written chain, without caps; N, C: chain ends. Non-standard residues stand in square brackets, D forms with d. Residues, ends and D or L forms follow the SMILES beside them. Chains are numbered I, II in the order given. Actinocin(9to1) = Cc1c2oc3c(C)ccc(C(=O)[*:1])c3nc-2c(C(=O)[*:2])c(N)c1=O; NMeV = CN[C@H](C(=O)O)C(C)C; Sar = CNCC(=O)O

What was measured:
tubulin = experiment: Cell-free tubulin polymerization assay in vitro; assay type: biochemical; settings: 10 μM; control 19 mOD/min
Experimental: The purified tubulin was obtained commercially (Cytoskeleton Inc., Denver, CO, USA) and the polymerization assays were carried out according to the method described previously.[36] […] The resulting polymerization curves are representative of the three phases of microtubule polymerization, namely nucleation, growth and steady-state equilibrium. Paclitaxel and nocodazole were used in the assay as a known enhancer and inhibitor of tubulin polymerization, respectively. The ability of BPT to inhibit tubulin polymerization in vitro was determined according to the manufacturer's instructions. Briefly, tubulin protein (3 mg/ml) was polymerized in GTP buffer (80 mM PIPES, pH 6.9, 2 mM MgCl2, 0.5 mM EGTA, 10.2% glycerol and 1 mM GTP) in the presence of a range of BPT concentrations at 37 °C in a temperature-regulated Biotech spectrophotometer (Potton, Bedfordshire, UK). The absorbance (at 340 nm) kinetics of 61 cycles for each sample was studied and the readings were recorded at an interval of 1 min.

pBluescript plasmid DNA = experiment: EtBr displacement assay; assay type: binding; settings: 1.3 μM EtBr, pH 7.4
Experimental: The assays were performed in a 96-well plate with clear bottom (Costar, Washington, DC, USA). The assay involved the addition of 10 μl of 10 × concentrated stock solution of compounds (dissolved in DMSO and further diluted in EtBr displacement assay buffer) to 90 μl of reaction mixture containing 6 μg of purified pBlueScript DNA and 1.3 μM EtBr in EtBr displacement assay buffer with final pH 7.4. Equivalent amounts of DMSO were added to the vehicle controls. In addition to control samples (DNA+EtBr), test samples (DNA+EtBr+test compounds), blank 1 (EtBr only), blank 2 (DNA only), wells containing DNA and compound were also prepared to test any change in the background fluorescence readings. The reduction in relative fluorescence counts was monitored ([…]) and recorded after 1 min equilibration time. Fascaplysin and actinomycin D, which are known to intercalate d-s DNA, were used as standard compounds in assay. The mean control and test readings were corrected by subtracting blank readings. The percentage fluorescence in the test samples in reaction with control samples was calculated by using following formula: […]

[1] = system: PC-3 (prostate; p53 null, pRb+); experiment: Cell proliferation (MTT) assay, PC-3; assay type: cell-based; settings: Homo sapiens, 48 h, read-out: IC50 cell growth inhibition, PC-3
Experimental: (§1) All 10 human cancer cell lines were maintained at 37 °C in 5% CO2 in RPMI-1640 medium, supplemented with 10% foetal calf serum and 100 μg/ml normocin. The 10 cancer cell lines used for screening were all obtained from ATCC (Manassas, VA, USA); they were the NSCLC (a form of cancer that is resistant to chemotherapy) lines: NCI-H460 (pRb^+, p53^+), A549 (pRb^+, p53^+), Calu-1 (pRb^+, p53-null), NCI-H1299 (pRb^+, p53-null), NCI-H358 (pRb-null, p53-null); the colon cancer line LS174T (pRb^+, p53^+); the prostate cancer line PC-3 (pRb^+, p53-null); the pancreatic cancer line MiaPaca (pRb^+, p53-mutant). The genotypes within brackets indicate the status of the tumour suppressor proteins pRb and p53. The mouse embryonic normal hepatic cell line (BNL CL2) and its SV40 large T-antigen-transformed counterpart cell line (BNL SV A.8) were also purchased from ATCC. The large T-antigen inactivates the tumour suppressor proteins p53 and pRb. The detailed procedure of cell proliferation (MTT) assay and IC50 determination was described previously.[32]

[2] = system: Calu-1 (NSCLC; p53 null, pRb+); experiment: Cell proliferation (MTT) assay, Calu-1; assay type: cell-based, human; settings: Homo sapiens, Calu-1; 48 h, MTT; read-out: IC50 cell growth inhibition, Calu-1
Experimental: as §1

Cdk1-cyclin B1 = Cdk1-cyclin B1 (Homo sapiens, UniProt P06493); experiment: In vitro kinase assay, Cdk1-cyclin B1 (in-house); assay type: biochemical; settings: three independent experiments; read-out: IC50 (mean±S.D.), Cdk1-cyclin B1
Cdk1-cyclin B1, sequence (P06493 whole entry): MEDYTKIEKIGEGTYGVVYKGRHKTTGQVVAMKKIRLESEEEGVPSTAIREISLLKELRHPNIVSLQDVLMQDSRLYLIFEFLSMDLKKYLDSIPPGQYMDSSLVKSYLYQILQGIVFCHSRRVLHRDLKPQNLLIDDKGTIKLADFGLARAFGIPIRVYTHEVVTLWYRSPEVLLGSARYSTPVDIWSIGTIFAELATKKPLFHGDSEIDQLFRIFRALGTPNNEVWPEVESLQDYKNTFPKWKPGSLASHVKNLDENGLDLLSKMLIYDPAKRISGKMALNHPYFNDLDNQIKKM
Cdk1-cyclin B1, sequence (P14635 whole entry partner): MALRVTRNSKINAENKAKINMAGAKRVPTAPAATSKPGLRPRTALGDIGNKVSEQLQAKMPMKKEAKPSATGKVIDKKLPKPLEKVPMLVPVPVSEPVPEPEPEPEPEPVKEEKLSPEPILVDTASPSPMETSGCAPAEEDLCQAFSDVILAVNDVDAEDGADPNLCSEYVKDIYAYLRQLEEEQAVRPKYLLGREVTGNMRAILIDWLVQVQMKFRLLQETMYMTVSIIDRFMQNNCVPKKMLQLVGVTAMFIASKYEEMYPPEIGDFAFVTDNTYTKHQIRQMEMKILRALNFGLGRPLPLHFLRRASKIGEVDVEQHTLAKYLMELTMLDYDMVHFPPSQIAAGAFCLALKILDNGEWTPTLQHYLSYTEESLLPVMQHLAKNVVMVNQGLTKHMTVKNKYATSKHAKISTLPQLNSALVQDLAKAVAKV
Experimental: (§2) The in vitro kinase assays for testing against Cdk4-cyclin D1, Cdk2-cyclin A, Cdk1-cyclin B1 and Cdk9-cyclin T1 were performed in-house. The methodology and results have been reported previously.[20], [30], [31], [32], [45] The kinase profiling for 58 representative kinases was carrried out commercially at Millipore Bioscience Division, Livingston, UK.

Cdk9-cyclin T1 = Cdk9-cyclin T1 (Homo sapiens, UniProt P50750); experiment: In vitro kinase assay, Cdk9-cyclin T1 (in-house); assay type: biochemical; settings: three independent experiments; read-out: IC50 (mean±S.D.), Cdk9-cyclin T1
Cdk9-cyclin T1, sequence (P50750 whole entry): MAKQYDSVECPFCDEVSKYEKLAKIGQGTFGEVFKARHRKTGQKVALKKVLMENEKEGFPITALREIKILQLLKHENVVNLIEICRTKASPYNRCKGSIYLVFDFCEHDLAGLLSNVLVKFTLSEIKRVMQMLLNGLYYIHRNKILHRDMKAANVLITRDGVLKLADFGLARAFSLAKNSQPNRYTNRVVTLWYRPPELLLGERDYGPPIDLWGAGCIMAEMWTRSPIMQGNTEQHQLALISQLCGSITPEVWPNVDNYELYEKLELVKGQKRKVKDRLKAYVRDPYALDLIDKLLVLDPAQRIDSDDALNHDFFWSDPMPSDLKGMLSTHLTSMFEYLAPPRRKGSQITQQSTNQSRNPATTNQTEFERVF
Cdk9-cyclin T1, sequence (O60563 whole entry partner): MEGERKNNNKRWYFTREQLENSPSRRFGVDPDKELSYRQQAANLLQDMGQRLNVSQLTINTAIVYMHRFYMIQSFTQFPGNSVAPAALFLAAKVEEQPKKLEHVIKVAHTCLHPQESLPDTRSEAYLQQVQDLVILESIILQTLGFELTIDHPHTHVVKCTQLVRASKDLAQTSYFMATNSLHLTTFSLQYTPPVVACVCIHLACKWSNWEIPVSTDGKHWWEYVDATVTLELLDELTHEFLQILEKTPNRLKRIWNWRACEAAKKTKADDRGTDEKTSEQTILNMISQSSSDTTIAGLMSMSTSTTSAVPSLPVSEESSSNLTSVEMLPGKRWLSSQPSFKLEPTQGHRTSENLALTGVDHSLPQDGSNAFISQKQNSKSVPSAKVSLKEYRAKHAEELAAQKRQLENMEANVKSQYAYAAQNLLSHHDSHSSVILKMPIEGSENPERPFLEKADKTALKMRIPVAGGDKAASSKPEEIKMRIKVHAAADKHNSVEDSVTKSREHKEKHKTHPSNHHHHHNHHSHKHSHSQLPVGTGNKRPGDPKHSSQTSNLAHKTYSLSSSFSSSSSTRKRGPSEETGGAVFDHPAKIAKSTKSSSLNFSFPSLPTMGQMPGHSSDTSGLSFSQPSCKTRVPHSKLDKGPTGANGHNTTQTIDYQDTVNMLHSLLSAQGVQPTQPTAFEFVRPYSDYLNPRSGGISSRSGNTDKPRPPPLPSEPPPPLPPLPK
Experimental: as §2

[3] = system: BNL SV A.8 (mouse hepatic; SV40-mediated transformed cells); experiment: Cell proliferation (MTT) assay, BNL SV A.8; assay type: cell-based; settings: Mus musculus; 48 h, MTT; read-out: IC50 cell growth inhibition, BNL SV A.8
Experimental: as §1

[4] = system: NCI-H358 (NSCLC; p53 null, pRb null); experiment: Cell proliferation (MTT) assay, NCI-H358; assay type: cell-based; settings: Homo sapiens, 48 h, read-out: IC50 cell growth inhibition, NCI-H358
Experimental: as §1

[5] = system: NCI-H460 (NSCLC; p53+, pRb+); experiment: Cell proliferation (MTT) assay, NCI-H460; assay type: cell-based; settings: Homo sapiens, 48 h, read-out: IC50 cell growth inhibition, NCI-H460
Experimental: as §1

[6] = system: BNL CL2 (mouse normal hepatic cells); experiment: Cell proliferation (MTT) assay, BNL CL2; assay type: cell-based; settings: Mus musculus, BNL CL.2; 48 h, MTT; read-out: IC50 cell growth inhibition, BNL CL2
Experimental: as §1

[7] = system: NCI-H1299 (NSCLC; p53 null, pRb+); experiment: Cell proliferation (MTT) assay, NCI-H1299; assay type: cell-based; settings: Homo sapiens, 48 h, read-out: IC50 cell growth inhibition, NCI-H1299
Experimental: as §1

Cdk2-cyclin A = Cdk2-cyclin A (Homo sapiens, UniProt P24941); experiment: In vitro kinase assay, Cdk2-cyclin A (in-house); assay type: biochemical; settings: three independent experiments; read-out: IC50 (mean±S.D.), Cdk2-cyclin A
Experimental: as §2

[8] = system: MiaPaCa (pancreatic; p53His273mut, pRb+); experiment: Cell proliferation (MTT) assay, MiaPaCa; assay type: cell-based; settings: Homo sapiens, MIA PaCa-2, 48 h, read-out: IC50 cell growth inhibition, MiaPaCa
Experimental: as §1

Calu-1 cells = system: Calu-1 cells; design: method as in PMID 16493461; settings: cited from earlier work
Cdk4-cyclin D1 = Cdk4-cyclin D1 (Homo sapiens, UniProt P11802); experiment: In vitro kinase assay, Cdk4-cyclin D1 (in-house); assay type: biochemical; settings: three independent experiments; read-out: IC50 (mean±S.D.), Cdk4-cyclin D1
Cdk4-cyclin D1, sequence (P11802 whole entry): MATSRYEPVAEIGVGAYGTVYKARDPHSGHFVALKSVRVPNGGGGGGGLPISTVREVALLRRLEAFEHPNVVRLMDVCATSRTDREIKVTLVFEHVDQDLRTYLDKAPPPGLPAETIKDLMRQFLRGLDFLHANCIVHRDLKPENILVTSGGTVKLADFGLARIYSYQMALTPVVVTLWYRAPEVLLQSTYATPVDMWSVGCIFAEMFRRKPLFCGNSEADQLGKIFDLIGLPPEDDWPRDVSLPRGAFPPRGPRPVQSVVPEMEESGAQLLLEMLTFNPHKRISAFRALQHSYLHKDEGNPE
Cdk4-cyclin D1, sequence (P24385 whole entry partner): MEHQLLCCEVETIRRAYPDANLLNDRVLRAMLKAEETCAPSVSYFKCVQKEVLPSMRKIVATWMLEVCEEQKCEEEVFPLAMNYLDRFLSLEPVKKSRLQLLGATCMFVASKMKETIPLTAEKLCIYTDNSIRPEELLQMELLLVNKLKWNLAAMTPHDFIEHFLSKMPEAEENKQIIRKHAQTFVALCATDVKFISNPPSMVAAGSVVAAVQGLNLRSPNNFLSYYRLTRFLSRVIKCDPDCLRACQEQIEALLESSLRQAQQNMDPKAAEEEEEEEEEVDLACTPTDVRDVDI
Experimental: as §2

[9] = system: LS174T (colorectal carcinoma; p53+, pRb+); experiment: Cell proliferation (MTT) assay, LS174T; assay type: cell-based; settings: Homo sapiens, 48 h, read-out: IC50 cell growth inhibition, LS174T
Experimental: as §1

A549 (NSCLC; p53+, pRb+) = experiment: Cell proliferation (MTT) assay, A549; assay type: cell-based; settings: Homo sapiens, 48 h, read-out: IC50 cell growth inhibition, A549
Experimental: as §1

NCI-H358 cells = experiment: Flow cytometric cell cycle analysis, synchronized NCI-H358; assay type: cell-based, human; settings: NCI-H358, hydroxyurea 250 μM, 18 h
Experimental: The untreated (control) and treated (with test compounds) cells were harvested by trypsinization, washed once with PBS and then fixed in 70% chilled (−20 °C) ethanol for minimum 1 h. After the fixation step, cells were centrifuged for 5 min at 3000 × g at room temperature, and the pellet was suspended in PBS containing 50 μg/ml propidium iodide (Sigma-Aldrich, Dorset, UK; cat. no. P-4170) and 0.5 mg/ml DNase-free ribonuclease (Sigma-Aldrich; cat. no. R-5503). The cells were stained for 1 h in the dark at 4 °C. Cell cycle analysis was performed on the Beckman Coulter (Epics Altra) fluorescence-activated cell sorter (Beckman Coulter UK Ltd, Buckinghamshire, UK). To gate all the events that represent single cells, and not cell doublets or cell clumps, the following analyses were performed on the samples. Cytograms of propidium iodide fluorescence peak signal versus integrated fluorescence or the linear signal were plotted. All data points on the straight line were isolated in a single gate and the gated data was further used for plotting a histogram that represents a complete cell cycle. The total number of events was not allowed to exceed 200 events per s. Data acquisition was stopped after a minimum of 10 000 events had been collected.

SMILES: CC(=O)O[C@H]1C(=O)[C@@]2(C)[C@H]([C@H](OC(=O)c3ccccc3)[C@]3(O)C[C@H](OC(=O)[C@H](O)[C@@H](NC(=O)c4ccccc4)c4ccccc4)C(C)=C1C3(C)C)[C@]1(OC(C)=O)CO[C@@H]1C[C@@H]2O [paclitaxel, reference compound]
- Vmax of tubulin polymerization (tubulin): 61 mOD/min

SMILES: Cc1c2oc3c(C)ccc(C(=O)N[C@@H]4C(=O)N[C@H](C(C)C)C(=O)N5CCC[C@H]5C(=O)N(C)CC(=O)N(C)[C@@H](C(C)C)C(=O)O[C@@H]4C)c3nc-2c(C(=O)N[C@@H]2C(=O)N[C@H](C(C)C)C(=O)N3CCC[C@H]3C(=O)N(C)CC(=O)N(C)[C@@H](C(C)C)C(=O)O[C@@H]2C)c(N)c1=O [actinomycin D, reference compound] (I: T[dV]P[Sar][NMeV] / II: T[dV]P[Sar][NMeV]; ester I:1-I:C, II:1-II:C; linker I:N-II:N via Actinocin(9to1))
- EtBr displacement from DNA (pBluescript plasmid DNA): readily dislodges the bound EtBr

SMILES: COc1cccc(C(=O)N2CCc3c([nH]c4ccccc34)C2)c1 [CA199]
- IC50 [1]: 13.1 µM
- IC50 [2]: 47 µM
- IC50 (Cdk1-cyclin B1): > 500 µM
- IC50 (Cdk9-cyclin T1): > 1000 µM
- IC50 [3]: 8.2 µM
- IC50 [4]: 3.5 µM
- IC50 [5]: 6.2 µM
- IC50 [6]: 6.5 µM
- IC50 [7]: 4.5 µM
- IC50 (Cdk2-cyclin A): 766 ± 33 µM
- EtBr displacement from DNA (pBluescript plasmid DNA): No EtBr displacement up to 100 μM
- IC50 [8]: 8.5 µM
- phase of cell cycle block in Calu-1 cells (Calu-1 cells): blocks only at the G0/G1 phase
- IC50 (Cdk4-cyclin D1): 24.4 ± 4 µM
- IC50 [9]: 7.1 µM
- IC50 (A549 (NSCLC; p53+, pRb+)): 8 µM

SMILES: NC(=O)NO [Hydroxyurea, hydroxyurea, reference compound]
- cells in G0/G1 (NCI-H358 cells): 77%
